This passage reports Kd results from article PMC9950949 (iScience, 2023).

The assay concerns the target NLRP3 (Homo sapiens, UniProt Q96P20). As to the kind of experiment: microscale thermophoresis. It counts as binding.

Sequence of NLRP3 (Q96P20 whole entry): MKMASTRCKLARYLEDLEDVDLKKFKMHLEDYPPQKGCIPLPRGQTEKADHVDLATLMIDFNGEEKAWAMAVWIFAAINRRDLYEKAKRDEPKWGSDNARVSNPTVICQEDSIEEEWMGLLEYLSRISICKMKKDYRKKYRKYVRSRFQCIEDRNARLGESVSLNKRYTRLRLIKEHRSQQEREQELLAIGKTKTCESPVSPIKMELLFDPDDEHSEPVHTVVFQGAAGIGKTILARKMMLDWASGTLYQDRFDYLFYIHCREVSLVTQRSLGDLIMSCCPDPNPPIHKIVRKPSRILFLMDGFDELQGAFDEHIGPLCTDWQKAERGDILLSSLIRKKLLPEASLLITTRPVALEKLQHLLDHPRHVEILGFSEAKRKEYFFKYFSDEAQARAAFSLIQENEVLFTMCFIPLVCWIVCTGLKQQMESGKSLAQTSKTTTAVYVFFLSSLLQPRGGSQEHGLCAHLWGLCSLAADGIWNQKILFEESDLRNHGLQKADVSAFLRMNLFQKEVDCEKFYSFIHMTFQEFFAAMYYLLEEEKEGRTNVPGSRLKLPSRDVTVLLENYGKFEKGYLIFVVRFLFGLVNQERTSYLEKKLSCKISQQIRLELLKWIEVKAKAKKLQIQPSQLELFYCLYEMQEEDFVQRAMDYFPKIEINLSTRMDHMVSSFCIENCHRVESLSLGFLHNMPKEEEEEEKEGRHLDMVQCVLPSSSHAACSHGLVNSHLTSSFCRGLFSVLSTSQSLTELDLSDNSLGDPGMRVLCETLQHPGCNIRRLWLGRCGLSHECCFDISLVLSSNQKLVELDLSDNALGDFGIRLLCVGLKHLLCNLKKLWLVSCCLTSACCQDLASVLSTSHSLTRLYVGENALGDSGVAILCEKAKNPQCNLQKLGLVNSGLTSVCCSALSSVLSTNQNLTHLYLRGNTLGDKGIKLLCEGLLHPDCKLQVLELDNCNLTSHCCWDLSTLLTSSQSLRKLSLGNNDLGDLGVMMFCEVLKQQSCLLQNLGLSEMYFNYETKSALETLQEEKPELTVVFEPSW

In turn, `O=C1NC(=O)[C@@H](c2cn3c4c(cccc24)CCC3)[C@@H]1c1c[nH]c2ccccc12` [Tivantinib] had a Kd of about 373 nM.
